Measured values from US4564476A, “Aryl fatty acid leukotriene synthesis inhibitors” (McNeilab, Inc., priority 1984, dated 1986).
pIC50: −log10 of the molar value.

Tests used:
[1] = tested on: guinea pig lung parenchymal tissue; assay: Immunologically Mediated Contraction of the Parenchymal Strip (IMCPS); design: species or system guinea pig (male Hartley strain); conditions: Cavia porcellus, egg albumin induced contraction of sensitized guinea pig lung parenchymal strip, with chlorpheniramine 10.0 μM and indomethacin 100.0 μM, relative to control tissue, read-out: IMCPS % inhib. 100 μM
Method: (a) Immunologically Mediated Contraction of the Parenchymal Strip (IMCPS)
It is a modification of the procedure published by K. Forsberg and L. Sorenby in Agents and Actions, Vol. 9 pp. 364-368 (1978). In this test, male Hartley strain guinea pigs weighing 400 to 600 g were sensitized by subcutaneous administration of chicken egg albumin (Sigma A-5503, 1.0 mg, 0.5% solution) and bordetella pertussis, 11×10^9 cells (Massachusetts Public Health Biological Labs) 4 to 8 weeks prior to the experiment. The animals were sacrificed, the heart and lungs were removed en bloc and placed in Krebs solution at room temperature. Lung strips (2.5 cm in length) were cut from the peripheral edge of each lobe. Two strips were removed from each animal and were trimmed to be of equal length. Each strip was suspended in an isolated organ bath (10.0 ml) containing oxygenated Krebs buffer solution at 37.5° C. then attached to a force displacement transducer (Grass FT03) and placed under an initial tension of 1.0 g. The tissues were allowed to equilibrate for 45-60 minutes, during which the bathing solution was changed several times. At the end of the equilibration period, chlorpheniramine (10.0 μM) and indomethacin (100.0 μM) were added to eliminate the contribution of histamine and prostaglandins to the contractile response. The two tissues from each animal were matched so that one tissue served as a control, and the test drug dissolved in DMSO was added to the bath containing the other tissue at a final concentration of 100 μM. After 30 minutes, egg albumin was added to each bath and the contractile response was measured as milligrams of tension developed as recorded on a Grass Model 7D polygraph.

[2] = tested on: lipoxygenase metabolites released or generated from human granulocyte cells; assay: Human Granulocyte Assay for Lipoxygenase Products (HGALP); type: cell-based; conditions: [3H]-arachidonic acid prelabeled human granulocytes, 10 μM ionophore A23187 challenge, 14 μM indomethacin
Method: (b) Human Granulocyte Assay for Lipoxygenase Products (HGALP)
This test is a measurement of the inhibition of the synthesis or release of [3H]-labeled lipoxygenase metabolites released or generated from human granulocyte cells that are prelabeled with [3H]-arachidonic acid. These metabolites include the leukotrienes (e.g., LTB4) which are potent mediators of inflammation and allergy. In this test, a granulocyte enriched fraction is prepared from freshly drawn human blood (50 ml/donor) by standard techniques involving unit gravity separation on ficoll hypaque. Cells are prelabeled with [3H]-arachidonic acid (20 μCi in 2 ml cell suspension) during a 30 min. incubation at 37° C. After washing out unincorporated label, the radiolabeled cells are brought up in incubation buffer (Minimum Essential Medium containing 14 μM indomethacin) to a 10^7 cell/ml concentration. Cell suspensions (1 ml/sample) are preincubated for 5 min. in the presence or absence of test drugs delivered in 5 μl dimethylsulfoxide (DMSO). Cell suspensions are challenged with 10 μM ionophore A23187 to activate the calcium-dependent metabolism of [3H]-arachidonic acid. After a 5 min. incubation at 37° C., incubations are terminated by the addition of 1 ml ice cold phosphate buffered saline, and cells are pelleted by centrifugation. Supernatants are passed through C18 Sep Pak® cartridges which are then washed twice with 1 ml water. Lipoxygenase metabolites are eluted with two 1 ml volumes of methanol. Eluates are collected in scintillation vials and counted in Aqueous Counting Scintillant (ACS). Radioactivity eluted with methanol is a measure of lipoxygenase metabolites. Values are normalized to vehicle (5 μl DMSO) treated controls and expressed as percent inhibition. Triplicate determinations at each drug concentration are analyzed as log-dose response curves by linear regression analysis from which IC50 values are derived.

[3] = tested on: lipoxygenase metabolites released or generated from human granulocyte cells; assay: as above; type: cell-based; conditions: [3H]-arachidonic acid prelabeled human granulocytes, 10 μM ionophore A23187

Structure (SMILES)	pIC50 [2]	inhibition at 100 µM [1]	inhibition at 100 µM [3]
CN(C)C(=O)CCC/C=C\C(C)(C)COCc1ccccc1 [Example 2, N,N,7,7-Tetramethyl-8-(phenylmethoxy)-5(Z)-octenamide]	4.38	19%	–
CC(C)(/C=C\CCCC(=O)O)COCc1ccccc1 [Example 1c, 7,7-Dimethyl-8-(phenylmethoxy)-5(Z)-octenoic Acid]	–	79%	–
CC(C)(/C=C\CCCC(=O)O)COCC=Cc1ccccc1 [Example 10c, 7,7-Dimethyl-8-(3-phenyl-2-propenoxy)-5(Z) octenoic Acid]	–	44%	5%
CCCC=Cc1ccccc1COCC(C)(C)/C=C\CCCC(=O)O [Example 11g, 7,7-Dimethyl-8-[2(1-pentenyl)phenylmethoxy]-5(Z)octenoic acid]	4.02	40%	–
CC(C)(/C=C\CCCC(=O)O)COCc1ccc(O)cc1 [Example 7, 7,7-Dimethyl-8-(4-hydroxyphenylmethoxy)-5(Z) Octenoic Acid]	3.59	4%	–
COc1ccc(COCC(C)(C)/C=C\CCCC(=O)O)cc1 [Example 5c, 7,7-Dimethyl-8-(4-methoxyphenylmethoxy)-5(Z)-octenoic Acid]	–	31%	18%
COC(=O)CCC/C=C\C(C)(C)COCc1ccc(O)cc1 [Example 6, Methyl 7,7-dimethyl-8-(4-hydroxyphenylmethoxy)-5(Z)-octenoate]	4.41	49%	–

Further molecules by rising pIC50 [2], results first:

pIC50 [2]	Structure (SMILES)	inhibition at 100 µM [1]	inhibition at 100 µM [3]
4.72	CC(C)(C=Cc1ccc(Cl)cc1)/C=C\CCCC(=O)O [Example 9, 9-(4-Chlorophenyl)-7,7-dimethyl-5(Z),8-nonadienoic acid]	76%	–
4.77	CC(C)(/C=C\CCCCO)COCc1ccccc1 [Example 4, 7,7-Dimethyl-8-(phenylmethoxy)-5(Z)-octenol]	38%	–
5.18	COC(=O)CCC/C=C\C(C)(C)C=Cc1ccc(Cl)cc1 [Example 8c, Methyl 9-(4-chlorophenyl)-7,7-dimethyl-5(Z),8-nonadienoate]	15%	–
